Results as given in ChEMBL document CHEMBL2380299, “Sungsanpin, a lasso peptide from a deep-sea streptomycete” (J Nat Prod, 2013).
Calls of active or inactive are those of the source. The calls are words filed in the database; no cut-off is given here. Where a SMILES comes first, the peptide text is derived from it. Bridges are numbered along the chain shown (N, C = ends).

Experiments:
A549 [1] = assay: Antiinvasive activity against human A549 cells assessed as MMP-9 mRNA level after 24 hrs by RT-PCR analysis; assay type: functional, cell-based
A549 [2] = assay: Antiinvasive activity against human A549 cells assessed as MMP-2 mRNA level after 24 hrs by RT-PCR analysis; assay type: functional, cell-based
A549 [3] = assay: Antiinvasive activity against human A549 cells assessed as increase in TIMP-2 mRNA level after 24 hrs by RT-PCR analysis; assay type: functional, cell-based
A549 [4] = assay: Antiinvasive activity against human A549 cells assessed as increase in TIMP-1 mRNA level after 24 hrs by RT-PCR analysis; assay type: functional, cell-based
A549 [5] = assay: Antiinvasive activity against human A549 cells at 50 uM after 24 hrs by micro plate reader analysis relative to control; assay type: functional
A549 [6] = assay: Antiinvasive activity against human A549 cells at 5 uM after 24 hrs by micro plate reader analysis relative to control; assay type: functional
A549 [7] = assay: Cytotoxicity against human A549 cells up to 50 uM after 24 hrs by CCK-8 assay; assay type: cell-based; settings: a549, 24 h

CC[C@H](C)[C@@H]1NC(=O)[C@@H]2CCCN2C(=O)[C@H](CCCCN)NC(=O)[C@H](CO)NC(=O)CNC(=O)[C@H](Cc2ccccc2)NC(=O)CNC(=O)C[C@@H](C(=O)N[C@@H](CO)C(=O)N[C@@H](Cc2ccccc2)C(=O)NCC(=O)N[C@@H](CC(C)C)C(=O)N[C@@H](CO)C(=O)N[C@@H](Cc2c[nH]c3ccccc23)C(=O)N[C@@H](CC(C)C)C(=O)O)NC1=O [SUNGSANPIN] (GFGSKPIDSFGLSWL-OH; lactam N-8)
Activity (A549 [1]): inactive | Activity (A549 [2]): inactive | Activity (A549 [3]): Dose-dependent effect | Activity (A549 [4]): Dose-dependent effect | Activity (A549 [5]): 47% | Activity (A549 [6]): 25% | Activity (A549 [7]): Non-toxic
